{"source": "paper PMC5035034", "about": "“Carbohydrate-Binding Non-Peptidic Pradimicins for the Treatment of Acute Sleeping Sickness in Murine Models” (PLoS Pathogens, 2016)", "target": "T1, VSG221 (variant surface glycoprotein 221, MITat 1.2) (Trypanosoma brucei, UniProt P26332)", "T1 construct": "soluble form VSG (sVSG) purified from parental bloodstream forms, N-glycosylated (Asn263, Asn428)", "assay": "SPR (Biacore T200) on immobilized VSG221, […]", "assay_type": "binding", "data": [{"smiles": "CN[C@@H]1[C@H](O[C@@H]2OC[C@@H](O)[C@H](O)[C@H]2O)[C@@H](O)[C@H](O[C@H]2c3cc(C)c(C(=O)N[C@H](C)C(=O)O)c(O)c3-c3c(cc4c(c3O)C(=O)c3cc(OC)cc(O)c3C4=O)[C@@H]2O)O[C@@H]1C", "note": "[PRM-A, pradimicin A]", "values": [{"measurement": "SPR (Biacore T200) on immobilized VSG221, 1.56 to 50 uM", "value": "using the high-density parental Tb BSF VSG221 sensorchip, concentration-dependent binding of PRM-A could be observed"}]}]}
